In brackets after ≈: the same amount, converted by molar mass. Positions of bridges follow the written chain, without caps; N, C: chain ends. Non-standard residues stand in square brackets, D forms with d. Residues, ends and D or L forms follow the SMILES beside them. Phe(4-tBu) = CC(C)(C)c1ccc(C[C@H](N)C(=O)O)cc1; S5 = C=CCCC[C@](C)(N)C(=O)O; PEG2 = NCCOCCOCCC(=O)O
What was measured:
in vitro [1] = type: cell-based; details: human, Inhibitory Concentration at 50% Cytotoxicity (IC50) Human Liver Cells (HepG2)
In short: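 Cytotoxicity read by CellTiter-Glo luminescence after 48 h at 37 °C exposure to serially diluted StAMPs or vehicle. HepG2 cells were grown in EMEM plus 10% FBS and given 4 h to attach before dosing; peptides came from a 5 mg/mL aqueous stock.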

A. baumannii = type: cell-based, Acinetobacter baumannii
In short: (§1)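 Visible-growth endpoint after 20-24 h at 37 °C defines the MIC. Test organisms, pre-grown to log phase, were exposed at 5×10^5 CFU/ml to peptide dilution series in standard or cation-adjusted Mueller-Hinton broth.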

K. pneumoniae = type: cell-based, Klebsiella pneumoniae
In short: as §1

P. aeruginosa = type: cell-based, Pseudomonas aeruginosa
In short: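 MIC taken as lowest peptide concentration with no visible growth after 20-24 h at 37 °C. Peptide serial dilutions from water stocks met P. aeruginosa inoculum (5×10^5 CFU/ml final) in MHB or MHB II, per a CLSI-adapted microbroth protocol.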

E. coli = type: cell-based, Escherichia coli
In short: as §1

S. aureus = type: cell-based, Staphylococcus aureus
In short: as §1

in vitro [2] = type: cell-based; details: human
In short: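 LDH release (absorbance at 490 nm) measured in the media of cells treated with serially diluted StAMPs or vehicle at 37 °C: 90 min for renal RPTEC, 48 h for liver HepG2. Cells were seeded overnight beforehand and media refreshed before dosing.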

## CC(C)[C@@H]1NC(=O)[C@@](C)(NC(=O)[C@H](C)NC(=O)[C@H](CCCCN)NC(=O)CNC(=O)[C@H](Cc2ccccc2)NC(=O)[C@H](CCCCN)NC(=O)[C@H](CCCCN)NC(=O)[C@H](CCCCN)NC(=O)[C@H](Cc2ccc(O)cc2)NC(=O)[C@H](Cc2c[nH]cn2)NC(=O)[C@]2(C)CCCC=CCCC[C@](C)(NC(=O)CN)C(=O)NCC(=O)N[C@@H](CCCCN)C(=O)N[C@@H](Cc3ccccc3)C(=O)N2)CCCC=CCCC[C@@](C)(C(=O)N[C@@H](C)C(=O)N[C@@H](CCCCN)C(=O)N[C@@H](CCCCN)C(N)=O)NC(=O)[C@H](CCC(=O)O)NC(=O)CNC1=O [compound 9] (H-G[S5]GKF[S5]HYKKKFGKA[S5]VGE[S5]AKK-NH2; staple 2-6, 16-20)
In vitro [1]
  IC50 at 48 hours: > 200 µg/mL
A. baumannii
  Minimum Inhibitory Concentration (MIC) A. baumannii: 4 µg/mL
K. pneumoniae
  Minimum Inhibitory Concentration (MIC) K. pneumoniae: >64 µg/mL
P. aeruginosa
  Minimum Inhibitory Concentration (MIC) P. aeruginosa: 16 µg/mL
E. coli
  Minimum Inhibitory Concentration (MIC) E. coli: 8 µg/mL
S. aureus
  Minimum Inhibitory Concentration (MIC) S. aureus: >64 µg/mL
In vitro [2]
  IC50 at 90 min: > 200 µg/mL

## CC(C)[C@@H]1NC(=O)[C@@](C)(NC(=O)[C@H](C)NC(=O)[C@H](CCCCN)NC(=O)CNC(=O)[C@H](Cc2ccccc2)NC(=O)[C@H](CCCCN)NC(=O)[C@H](CCCCN)NC(=O)[C@H](CCCCN)NC(=O)[C@H](CCCCN)NC(=O)[C@H](CCCCN)NC(=O)[C@]2(C)CCCC=CCCC[C@](C)(NC(=O)CN)C(=O)NCC(=O)N[C@@H](CCCCN)C(=O)N[C@@H](Cc3ccccc3)C(=O)N2)CCCC=CCCC[C@@](C)(C(=O)N[C@@H](C)C(=O)N[C@@H](CCCCN)C(=O)N[C@@H](CCCCN)C(=O)NCCOCCOCCC(N)=O)NC(=O)[C@H](CCC(=O)O)NC(=O)CNC1=O [compound 72] (H-G[S5]GKF[S5]KKKKKFGKA[S5]VGE[S5]AKK[PEG2]-NH2; staple 2-6, 16-20)
In vitro [1]
  IC50 at 48 hours: 275 µg/mL (≈ 101 µM)
A. baumannii
  Minimum Inhibitory Concentration (MIC) A. baumannii: 2 µg/mL
K. pneumoniae
  Minimum Inhibitory Concentration (MIC) K. pneumoniae: 4 µg/mL
P. aeruginosa
  Minimum Inhibitory Concentration (MIC) P. aeruginosa: 4 µg/mL
E. coli
  Minimum Inhibitory Concentration (MIC) E. coli: 2 µg/mL
S. aureus
  Minimum Inhibitory Concentration (MIC) S. aureus: >64 µg/mL
In vitro [2]
  IC50 at 90 min: 200 µg/mL (≈ 73.4 µM)

## CC(C)[C@@H]1NC(=O)[C@@](C)(NC(=O)[C@H](C)NC(=O)[C@H](CCCCN)NC(=O)CNC(=O)[C@H](Cc2ccccc2)NC(=O)[C@H](CCCCN)NC(=O)[C@H](CCCCN)NC(=O)[C@H](CCCCN)NC(=O)[C@H](CO)NC(=O)[C@H](Cc2c[nH]cn2)NC(=O)[C@]2(C)CCCC=CCCC[C@](C)(NC(=O)[C@@H](N)Cc3c[nH]c4ccccc34)C(=O)NCC(=O)N[C@@H](CCCCN)C(=O)N[C@@H](Cc3ccccc3)C(=O)N2)CCCC=CCCC[C@@](C)(C(=O)N[C@@H](C)C(=O)N[C@@H](CCCCN)C(=O)N[C@@H](CCCCN)C(N)=O)NC(=O)[C@H](CCC(=O)O)NC(=O)CNC1=O [compound 56] (H-W[S5]GKF[S5]HSKKKFGKA[S5]VGE[S5]AKK-NH2; staple 2-6, 16-20)
In vitro [1]
  IC50 at 48 hours: 200 µg/mL (≈ 75.2 µM)
A. baumannii
  Minimum Inhibitory Concentration (MIC) A. baumannii: 4 µg/mL
K. pneumoniae
  Minimum Inhibitory Concentration (MIC) K. pneumoniae: >64 µg/mL
P. aeruginosa
  Minimum Inhibitory Concentration (MIC) P. aeruginosa: 16 µg/mL
E. coli
  Minimum Inhibitory Concentration (MIC) E. coli: 8 µg/mL
S. aureus
  Minimum Inhibitory Concentration (MIC) S. aureus: >64 µg/mL
In vitro [2]
  IC50 at 90 min: 78 µg/mL (≈ 29.3 µM)

## CC(C)[C@@H]1NC(=O)[C@H](C(C)C)NC(=O)[C@@](C)(NC(=O)[C@H](C)NC(=O)[C@H](CCCCN)NC(=O)CNC(=O)[C@H](Cc2ccc(C(C)(C)C)cc2)NC(=O)[C@H](CCCCN)NC(=O)[C@H](CCCCN)NC(=O)[C@H](CCCCN)NC(=O)[C@H](CCCCN)NC(=O)[C@H](Cc2c[nH]cn2)NC(=O)[C@]2(C)CCCC=CCCC[C@](C)(NC(=O)CN)C(=O)NCC(=O)N[C@@H](CCCCN)C(=O)N[C@@H](Cc3ccc(C(C)(C)C)cc3)C(=O)N2)CCCC=CCCC[C@@](C)(C(=O)N[C@@H](C)C(=O)N[C@@H](CCCCN)C(=O)N[C@@H](CCCCN)C(N)=O)NC(=O)[C@H](CCC(=O)O)NC1=O [compound 31] (H-G[S5]GK[Phe(4-tBu)][S5]HKKKK[Phe(4-tBu)]GKA[S5]VVE[S5]AKK-NH2; staple 2-6, 16-20)
In vitro [1]
  IC50 at 48 hours: 101 µg/mL (≈ 37 µM)
A. baumannii
  Minimum Inhibitory Concentration (MIC) A. baumannii: 4 µg/mL
K. pneumoniae
  Minimum Inhibitory Concentration (MIC) K. pneumoniae: 8 µg/mL
P. aeruginosa
  Minimum Inhibitory Concentration (MIC) P. aeruginosa: 8 µg/mL
E. coli
  Minimum Inhibitory Concentration (MIC) E. coli: 4 µg/mL
S. aureus
  Minimum Inhibitory Concentration (MIC) S. aureus: 16 µg/mL
In vitro [2]
  IC50 at 90 min: 9 µg/mL (≈ 3.3 µM)

## CC(C)[C@@H]1NC(=O)[C@@](C)(NC(=O)[C@H](C)NC(=O)[C@H](CCCCN)NC(=O)CNC(=O)[C@H](Cc2ccccc2)NC(=O)[C@H](CCCCN)NC(=O)[C@H](CCCCN)NC(=O)[C@H](CCCCN)NC(=O)[C@H](CCC(N)=O)NC(=O)[C@H](Cc2c[nH]cn2)NC(=O)[C@]2(C)CCCC=CCCC[C@](C)(NC(=O)CN)C(=O)NCC(=O)N[C@@H](CCCCN)C(=O)N[C@@H](Cc3ccccc3)C(=O)N2)CCCC=CCCC[C@@](C)(C(=O)N[C@@H](C)C(=O)N[C@@H](CCCCN)C(=O)N[C@@H](CCCCN)C(N)=O)NC(=O)[C@H](CCC(=O)O)NC(=O)CNC1=O [compound 7] (H-G[S5]GKF[S5]HQKKKFGKA[S5]VGE[S5]AKK-NH2; staple 2-6, 16-20)
In vitro [1]
  IC50 at 48 hours: > 200 µg/mL
A. baumannii
  Minimum Inhibitory Concentration (MIC) A. baumannii: 4 µg/mL
K. pneumoniae
  Minimum Inhibitory Concentration (MIC) K. pneumoniae: >64 µg/mL
P. aeruginosa
  Minimum Inhibitory Concentration (MIC) P. aeruginosa: 8 µg/mL
E. coli
  Minimum Inhibitory Concentration (MIC) E. coli: 6 µg/mL
S. aureus
  Minimum Inhibitory Concentration (MIC) S. aureus: >64 µg/mL
In vitro [2]
  IC50 at 90 min: > 200 µg/mL

## CC(C)[C@@H]1NC(=O)[C@@](C)(NC(=O)[C@H](C)NC(=O)[C@H](CCCCN)NC(=O)CNC(=O)[C@H](Cc2ccccc2)NC(=O)[C@H](CCCCN)NC(=O)[C@H](CCCCN)NC(=O)[C@H](CCCCN)NC(=O)[C@H](CO)NC(=O)[C@H](Cc2c[nH]cn2)NC(=O)[C@]2(C)CCCC=CCCC[C@](C)(NC(=O)CN)C(=O)NCC(=O)N[C@@H](CCCCN)C(=O)N[C@@H](Cc3ccccc3)C(=O)N2)CCCC=CCCC[C@@](C)(C(=O)N[C@@H](C)C(=O)N[C@@H](CCCCN)C(=O)N[C@@H](CCCCN)C(N)=O)NC(=O)[C@H](CC(N)=O)NC(=O)CNC1=O [compound 18] (H-G[S5]GKF[S5]HSKKKFGKA[S5]VGN[S5]AKK-NH2; staple 2-6, 16-20)
In vitro [1]
  IC50 at 48 hours: > 200 µg/mL
A. baumannii
  Minimum Inhibitory Concentration (MIC) A. baumannii: 2 µg/mL
K. pneumoniae
  Minimum Inhibitory Concentration (MIC) K. pneumoniae: 64 µg/mL
P. aeruginosa
  Minimum Inhibitory Concentration (MIC) P. aeruginosa: 4 µg/mL
E. coli
  Minimum Inhibitory Concentration (MIC) E. coli: 4 µg/mL
S. aureus
  Minimum Inhibitory Concentration (MIC) S. aureus: >64 µg/mL
In vitro [2]
  IC50 at 90 min: ~200 µg/mL (≈ 79.5 µM)

## CC(C)[C@@H]1NC(=O)[C@@](C)(NC(=O)[C@H](CCCCN)NC(=O)[C@H](CCCCN)NC(=O)[C@H](CCCCN)NC(=O)[C@H](CCCCN)NC(=O)[C@H](CCCCN)NC(=O)[C@]2(C)CCCC=CCCC[C@](C)(NC(=O)CN)C(=O)NCC(=O)N[C@@H](CCCCN)C(=O)N[C@@H](Cc3ccccc3)C(=O)N2)CCCC=CCCC[C@@](C)(C(=O)N[C@@H](C)C(=O)N[C@@H](CCCCN)C(=O)N[C@@H](CCCCN)C(N)=O)NC(=O)[C@H](CCC(=O)O)NC(=O)CNC1=O [compound 70] (H-G[S5]GKF[S5]KKKKK[S5]VGE[S5]AKK-NH2; staple 2-6, 12-16)
In vitro [1]
  IC50 at 48 hours: 102 µg/mL (≈ 47.2 µM)
A. baumannii
  Minimum Inhibitory Concentration (MIC) A. baumannii: 16 µg/mL
K. pneumoniae
  Minimum Inhibitory Concentration (MIC) K. pneumoniae: 4 µg/mL
P. aeruginosa
  Minimum Inhibitory Concentration (MIC) P. aeruginosa: 4 µg/mL
E. coli
  Minimum Inhibitory Concentration (MIC) E. coli: 4 µg/mL
S. aureus
  Minimum Inhibitory Concentration (MIC) S. aureus: >64 µg/mL
In vitro [2]
  IC50 at 90 min: 125 µg/mL (≈ 57.8 µM)

## CC(C)[C@@H]1NC(=O)[C@@](C)(NC(=O)[C@H](C)NC(=O)[C@H](CCCCN)NC(=O)CNC(=O)[C@H](Cc2ccccc2)NC(=O)[C@H](CCCCN)NC(=O)[C@H](CCCCN)NC(=O)[C@H](CCCCN)NC(=O)[C@H](CCCCN)NC(=O)[C@H](CCCCN)NC(=O)[C@]2(C)CCCC=CCCC[C@](C)(NC(=O)CN)C(=O)NCC(=O)N[C@@H](CCCCN)C(=O)N[C@@H](Cc3ccccc3)C(=O)N2)CCCC=CCCC[C@@](C)(C(=O)N[C@@H](C)C(=O)N[C@@H](CCCCN)C(=O)N[C@@H](CCCCN)C(=O)NCC(=O)NCC(=O)N[C@@H](CCC(N)=O)C(N)=O)NC(=O)[C@H](CCC(=O)O)NC(=O)CNC1=O [compound 77] (H-G[S5]GKF[S5]KKKKKFGKA[S5]VGE[S5]AKKGGQ-NH2; staple 2-6, 16-20)
In vitro [1]
  IC50 at 48 hours: > 200 µg/mL
A. baumannii
  Minimum Inhibitory Concentration (MIC) A. baumannii: 3 µg/mL
K. pneumoniae
  Minimum Inhibitory Concentration (MIC) K. pneumoniae: 16 µg/mL
P. aeruginosa
  Minimum Inhibitory Concentration (MIC) P. aeruginosa: 4 µg/mL
E. coli
  Minimum Inhibitory Concentration (MIC) E. coli: 4 µg/mL
S. aureus
  Minimum Inhibitory Concentration (MIC) S. aureus: >64 µg/mL
In vitro [2]
  IC50 at 90 min: > 200 µg/mL

Reference: patent US20240174723A1, “STAPLED ANTIMICROBIAL PEPTIDES (STAMPS) AND USES THEREOF” (Lytica Therapeutics, Inc., priority 2021, published 2024)
